Experimental data taken from US12084458B2, “Substituted pyridines, pyridazines, and pyrimidines as TYK2 inhibitors” (Sudo Biosciences Limited, priority 2021, dated 2024).

Legend:
[1] = tested on: HEK-Blue IL-23 cells (IL-23-stimulated STAT3 SEAP reporter; TYK2 JH2); test: HEK-Blue IL-23 SEAP reporter assay for profiling TYK2 pseudokinase (JH2) inhibition; type: cell-based; settings: 10 ng/mL human recombinant IL-23, SEAP reporter, read-out: IL23 (TYK2 inhibitory activity, IC50)
Procedure: (§1) Example B-1: HEK-Blue™ IL-23 and IFNα/β Reporter Assays for Profiling TYK2 Pseudokinase (JH2) Inhibition
(§2) HEK-Blue™ IL-23 and IFNα/β cells with a stably-integrated cytokine receptor and STAT3 or STAT1 express STAT-inducible secreted embryonic alkaline phosphatase (SEAP) reporter gene upon cytokine stimulation. These cells are plated in DMEM (Gibco) containing 10% heat-inactivated FBS (Gibco) and 100 U/mL PenStrep (Gibco) at 37° C. under 5% CO2 conditions for 20-22 hours. The cells are then pretreated with serially diluted test compounds for 60 min prior to stimulation with either 10 ng/mL human recombinant IL-23 (Miltenyl Biotech) or 1 ng/mL human recombinant IFNα (InvivoGen) for 22-24 hours for IL-23 or 16-18 h for IFNα. SEAP induction is measured using the QUANTI Blue™ Solution (InvivoGen) according to the manufacturer's instructions.

[2] = tested on: HEK-Blue IFNα/β cells (IFNα-stimulated STAT1 SEAP reporter; TYK2 JH2); test: HEK-Blue IFNα/β SEAP reporter assay for profiling TYK2 pseudokinase (JH2) inhibition; type: cell-based; parameters: IFNα (TYK2 inhibitory activity, IC50): scale not given here; settings: 1 ng/mL human recombinant IFNα; for IC50: Homo sapiens, HEK-Blue, read-out: IFNα (TYK2 inhibitory activity, IC50)
Procedure: as §1, §2

Compound	IC50 [1]	IC50 [2]	IFNα (TYK2 inhibitory activity, IC50) [2]
[2H]C([2H])([2H])NC(=O)c1nnc(NC(=O)C2CC2)cc1Nc1cccc2c1N(C)[C@H](C)c1nc(C)nn1-2 (single isomer, unassigned) [Compound 23]	< 30 nM	30 to 300 nM	
[2H]C([2H])([2H])NC(=O)c1cnc(NC(=O)C2CC2)cc1Nc1cccc2c1N(C)[C@H](C)c1nc(C)nn1-2 (single isomer, unassigned) [Compound 24]	< 30 nM	30 to 300 nM	
[2H]C([2H])([2H])NC(=O)c1cnc(NC(=O)C2CC2)cc1Nc1cccc2c1N(C)[C@H](C)c1nn(C)nc1-2 (single isomer, unassigned) [Compound 58]	< 30 nM	300 to 1000 nM	
[2H]C([2H])([2H])NC(=O)c1nnc(NC(=O)C2CC2)cc1Nc1cccc2c1N(C)[C@H](C)c1nn(C)nc1-2 (single isomer, unassigned) [Compound 59]	< 30 nM	30 to 300 nM	
[2H]C([2H])([2H])NC(=O)c1nnc(NC(=O)NC)cc1Nc1cccc2c1N(C)[C@H](C)c1nn(C)nc1-2 (single isomer, unassigned) [Compound 61]	30 to 300 nM	300 to 1000 nM	
[2H]C([2H])([2H])NC(=O)c1nnc(NC(=O)NC)cc1Nc1nccc2c1N(C)[C@H](C)c1nn(C)nc1-2 (single isomer, unassigned) [Compound 99]	30 to 300 nM	30 to 300 nM	
[2H]C([2H])([2H])NC(=O)c1cnc(NC(=O)C2CC2)cc1Nc1cc(F)cc2c1N(C)[C@H](C)c1nc(C)nn1-2 (single isomer, unassigned) [Compound 106]	30 to 300 nM	> 1000 nM	
[2H]C([2H])([2H])NC(=O)c1nnc(NC(=O)C2CC2)cc1Nc1cc(F)cc2c1N(C)[C@H](C)c1nc(C)nn1-2 (single isomer, unassigned) [Compound 109]	30 to 300 nM	300 to 1000 nM	
CNC(=O)c1nnc(Nc2ccc(F)cn2)cc1Nc1cccc2c1OCc1nc(C)nn1-2 [Compound 2, 6-((5-fluoropyridin-2-yl)amino)-N-methyl-4-((2-methyl-4H-benzo[b][1,2,4]triazolo[1,5-d][1,4]oxazin-6-yl)amino)pyridazine-3-carboxamide]	> 1000 nM	> 1000 nM	
CNC(=O)c1nnc(NC(=O)C2CC2)cc1Nc1cccc2c1OCc1nc(CO)nn1-2 [Compound 3, 6-(cyclopropanecarboxamido)-4-((2-(hydroxymethyl)-4H-benzo[b][1,2,4]triazolo[1,5-d][1,4]oxazin-6-yl)amino)-N-methylpyridazine-3-carboxamide]	> 1000 nM	> 1000 nM	
[2H]C([2H])([2H])NC(=O)c1nnc(NC(=O)CN2CCOCC2)cc1Nc1cccc2c1N(C)Cc1nc(C)nn1-2 [Compound 9, 4-((2,5-dimethyl-4,5-dihydro-[1,2,4]triazolo[1,5-a]quinoxalin-6-yl)amino)-N-(methyl-d3)-6-(2-morpholinoacetamido)pyridazine-3-carboxamide]	30 to 300 nM		C/D
[2H]C([2H])([2H])NC(=O)c1nnc(NC(=O)CN(C)C)cc1Nc1cccc2c1N(C)Cc1nc(C)nn1-2 [Compound 14, 4-((2,5-dimethyl-4,5-dihydro-[1,2,4]triazolo[1,5-a]quinoxalin-6-yl)amino)-6-(2-(dimethylamino)acetamido)-N-(methyl-d3)pyridazine-3-carboxamide]	30 to 300 nM	300 to 1000 nM	
[2H]C([2H])([2H])NC(=O)c1nnc(Nc2cc(C)cc(C)c2)cc1Nc1cccc2c1N(C)Cc1nc(C)nn1-2 [Compound 16, 4-((2,5-dimethyl-4,5-dihydro-[1,2,4]triazolo[1,5-a]quinoxalin-6-yl)amino)-6-((3,5-dimethylphenyl)amino)-N-(methyl-d3)pyridazine-3-carboxamide]	30 to 300 nM		C/D
[2H]C([2H])([2H])NC(=O)c1nnc(NC(=O)C(C)C)cc1Nc1cccc2c1N(C)Cc1nc(C)nn1-2 [Compound 17, 4-((2,5-dimethyl-4,5-dihydro-[1,2,4]triazolo[1,5-a]quinoxalin-6-yl)amino)-6-isobutyramido-N-(methyl-d3)pyridazine-3-carboxamide]	30 to 300 nM	300 to 1000 nM	
[2H]C([2H])([2H])NC(=O)c1nnc(NC(=O)CC(F)(F)F)cc1Nc1cccc2c1N(C)Cc1nc(C)nn1-2 [Compound 18, 4-((2,5-dimethyl-4,5-dihydro-[1,2,4]triazolo[1,5-a]quinoxalin-6-yl)amino)-N-(methyl-d3)-6-(3,3,3-trifluoropropanamido)pyridazine-3-carboxamide]	30 to 300 nM	300 to 1000 nM	
[2H]C([2H])([2H])NC(=O)c1nnc(NC(=O)N(C)C)cc1Nc1cccc2c1N(C)Cc1nc(C)nn1-2 [Compound 20, 4-((2,5-dimethyl-4,5-dihydro-[1,2,4]triazolo[1,5-a]quinoxalin-6-yl)amino)-6-(3,3-dimethylureido)-N-(methyl-d3)pyridazine-3-carboxamide]	30 to 300 nM	> 1000 nM	
[2H]C([2H])([2H])NC(=O)c1cnc(NC(=O)C2CC2)nc1Nc1cccc2c1N(C)Cc1nc(C)nn1-2 [Compound 21, 2-(cyclopropanecarboxamido)-4-((2,5-dimethyl-4,5-dihydro-[1,2,4]triazolo[1,5-a]quinoxalin-6-yl)amino)-N-(methyl-d3)pyrimidine-5-carboxamide]	30 to 300 nM	30 to 300 nM	
[2H]C([2H])([2H])NC(=O)c1nnc(NC(=O)C2(F)CC2)cc1Nc1cccc2c1N(C)Cc1nc(C)nn1-2 [Compound 37, 4-((2,5-dimethyl-4,5-dihydro-[1,2,4]triazolo[1,5-a]quinoxalin-6-yl)amino)-6-(1-fluorocyclopropane-1-carboxamido)-N-(methyl-d3)pyridazine-3-carboxamide]	30 to 300 nM	> 1000 nM	
[2H]C([2H])([2H])NC(=O)c1nnc(NS(=O)(=O)C2CC2)cc1Nc1cccc2c1N(C)Cc1nc(C)nn1-2 [Compound 38, 6-(cyclopropanesulfonamido)-4-((2,5-dimethyl-4,5-dihydro-[1,2,4]triazolo[1,5-a]quinoxalin-6-yl)amino)-N-(methyl-d3)pyridazine-3-carboxamide]	> 1000 nM	> 1000 nM	
[2H]C([2H])([2H])NC(=O)c1nnc(NC(=O)[C@@H]2CC2(F)F)cc1Nc1cccc2c1N(C)Cc1nc(C)nn1-2 [Compound 41, (S)-6-(2,2-difluorocyclopropane-1-carboxamido)-4-((2,5-dimethyl-4,5-dihydro-[1,2,4]triazolo[1,5-a]quinoxalin-6-yl)amino)-N-(methyl-d3)pyridazine-3-carboxamide]	30 to 300 nM	30 to 300 nM	
[2H]C([2H])([2H])NC(=O)c1nnc(NC(=O)[C@H]2CC2(F)F)cc1Nc1cccc2c1N(C)Cc1nc(C)nn1-2 [Compound 42, (R)-6-(2,2-difluorocyclopropane-1-carboxamido)-4-((2,5-dimethyl-4,5-dihydro-[1,2,4]triazolo[1,5-a]quinoxalin-6-yl)amino)-N-(methyl-d3)pyridazine-3-carboxamide]	30 to 300 nM	30 to 300 nM	
[2H]C([2H])([2H])NC(=O)c1nnc(NC(=O)C2CC2)cc1Nc1cccc2c1N(C)[C@@H](C([2H])([2H])[2H])c1nc(C)nn1-2 [Compound 43, (S)-6-(cyclopropanecarboxamido)-4-((2,5-dimethyl-4-(methyl-d3)-4,5-dihydro-[1,2,4]triazolo[1,5-a]quinoxalin-6-yl)amino)-N-(methyl-d3)pyridazine-3-carboxamide]	30 to 300 nM	300 to 1000 nM	
[2H]C([2H])([2H])NC(=O)c1cnc(NC(=O)C2CC2)c(F)c1Nc1cccc2c1N(C)Cc1nn(C)nc1-2 [Compound 65, 6-(cyclopropanecarboxamido)-4-((2,5-dimethyl-4,5-dihydro-2H-[1,2,3]triazolo[4,5-c]quinolin-6-yl)amino)-5-fluoro-N-(methyl-d3)nicotinamide]	300 to 1000 nM		C/D
CNC(=O)c1nnc(Nc2ccc(F)cn2)cc1Nc1cccc2c1OCCCn1cnnc1-2 [Compound 74, 4-((6,7-dihydro-5H-benzo[b][1,2,4]triazolo[3,4-d][1,5]oxazocin-9-yl)amino)-6-((5-fluoropyridin-2-yl)amino)-N-methylpyridazine-3-carboxamide]	> 1000 nM	> 1000 nM	
CNC(=O)c1nnc(NC(=O)C2CC2)cc1Nc1cccc2c1OCCCn1cnnc1-2 [Compound 75, 6-(cyclopropanecarboxamido)-4-((6,7-dihydro-5H-benzo[b][1,2,4]triazolo[3,4-d][1,5]oxazocin-9-yl)amino)-N-methylpyridazine-3-carboxamide]	> 1000 nM	> 1000 nM	
[2H]C([2H])([2H])NC(=O)c1nnc(N2CCN(C(C)C)C2=O)cc1Nc1cccc2c1N(C)Cc1nc(C)nn1-2 [Compound 81, 4-((2,5-dimethyl-4,5-dihydro-[1,2,4]triazolo[1,5-a]quinoxalin-6-yl)amino)-6-(3-isopropyl-2-oxoimidazolidin-1-yl)-N-(methyl-d3)pyridazine-3-carboxamide]	30 to 300 nM		C/D
